The nature of data set [1]: Increase in luteinizing hormone secretion in rat anterior pituitary cells relative to luteinizing hormone releasing factor. It is filed as functional, Pituitary gland cell.
Data set [2] can be described thus: Retardation factor in ethyl acetate-pyridine-acetic acid-water at 5:5:1:3 ratio by TLC. It is filed as physicochemical. Conditions: buffer.
A short description of data set [3]: Retardation factor in 1-butanol-pyridine-0.1% acetic acid at 5:3:11 ratio by TLC. It counts as physicochemical.
Data set [4] in a line: Retardation factor in 1-butanol-2-propanol-1 N ammonium hydroxide-ethyl acetate at 1:1:2.5:1 ratio by TLC. It counts as physicochemical.
Data set [5] is described as follows: Retardation factor in 1-butanol-acetic acid-water at 4:1:5 ratio by TLC. It is filed as physicochemical. The note with it: buffer.
Data set [6] can be described thus: Retardation factor in 1-butanol-ethyl acetate-acetic acid-water at 1:1:1:1 ratio by TLC. Conditions: buffer. It is filed as physicochemical.
Data set [7] is described as follows: Retardation factor in 2-butanol-0.1 N acetic acid at 1:1 ratio by TLC. It is filed as physicochemical.
Data set [8] in a line: Retardation factor in 2-butanol-water at 1:1 ratio by TLC. It counts as physicochemical. Conditions: buffer.
Data set [9] in a line: Retardation factor in 2-butanol-0.1 N ammonium hydroxide at 1:1 ratio by TLC. It is filed as physicochemical.

Regarding `CC(C)C[C@H](NC(=O)[C@@H](CCCN)NC(=O)[C@H](Cc1ccc(O)cc1)NC(=O)[C@H](CO)NC(=O)[C@H](Cc1c[nH]c2ccccc12)NC(=O)[C@H](Cc1cnc[nH]1)NC(=O)[C@@H]1CCC(=O)N1)C(=O)N[C@@H](CCCNC(=N)N)C(=O)N1CCC[C@H]1C(=O)NCC(N)=O`, the “fold change (FC)” value in data set [1] is reported as 182. Further, the Rf in [2] is reported as 0.6; in data set [3], 0.45; in data set [4], 0.25; in data set [5], 0.35; in data set [6] it was 0.62; in data set [7], 0.24.
Consider `CCCCCCCCCCCCNCCC[C@@H](NC(=O)[C@H](Cc1ccc(O)cc1)NC(=O)[C@H](CO)NC(=O)[C@H](Cc1c[nH]c2ccccc12)NC(=O)[C@H](Cc1cnc[nH]1)NC(=O)[C@@H]1CCC(=O)N1)C(=O)N[C@@H](CC(C)C)C(=O)N[C@@H](CCCNC(=N)N)C(=O)N1CCC[C@H]1C(=O)NCC`, for which the “fold change (FC)” value in data set [1] was determined as 490. Also, the Rf in data set [2] is 0.38; in data set [3], 0.62; in data set [4] it was 0.46; in data set [8] it was 0.4; in data set [5], 0.45; in [6] it was 0.72. For the same compound, the Rf is on record as 0.43 in data set [7] and 0.37 in data set [9].
In the case of `CCNC(=O)[C@@H]1CCCN1C(=O)[C@H](CCCNC(=N)N)NC(=O)[C@H](CC(C)C)NC(=O)[C@@H](CCCCN)NC(=O)[C@H](Cc1ccc(O)cc1)NC(=O)[C@H](CO)NC(=O)[C@H](Cc1c[nH]c2ccccc12)NC(=O)[C@H](Cc1cnc[nH]1)NC(=O)[C@@H]1CCC(=O)N1`, the “fold change (FC)” value in data set [1] was 1726. Further, the Rf is 0.63 in data set [2]; 0.53 in [3]; 0.31 in data set [4]; 0.4 in [5]; 0.66 in data set [6]; 0.27 in data set [7].
Take `CC(C)C[C@H](NC(=O)[C@@H](CCCCN)NC(=O)[C@H](Cc1ccc(O)cc1)NC(=O)[C@H](CO)NC(=O)[C@H](Cc1c[nH]c2ccccc12)NC(=O)[C@H](Cc1cnc[nH]1)NC(=O)[C@@H]1CCC(=O)N1)C(=O)N[C@@H](CCCNC(=N)N)C(=O)N1CCC[C@H]1C(=O)NCC(N)=O`: the “fold change (FC)” value in data set [1] is listed as 383. In addition, the Rf worked out at 0.58 in data set [2]; 0.42 in data set [3]; 0.24 in data set [4]; 0.31 in [5]; 0.57 in [6]; 0.24 in data set [7].
Turning to `CCCCCCCCCCCCNCCCC[C@@H](NC(=O)[C@H](Cc1ccc(O)cc1)NC(=O)[C@H](CO)NC(=O)[C@H](Cc1c[nH]c2ccccc12)NC(=O)[C@H](Cc1cnc[nH]1)NC(=O)[C@@H]1CCC(=O)N1)C(=O)N[C@@H](CC(C)C)C(=O)N[C@@H](CCCNC(=N)N)C(=O)N1CCC[C@H]1C(=O)NCC(N)=O`, in data set [1], the “fold change (FC)” value was 164. Besides, the Rf in data set [2] was found to be 0.35; in [3] it was 0.56; in [4], 0.44; in data set [8] it was 0.37; in [5] it was 0.4; in data set [6], 0.74. In addition, the results for the Rf in data set [7] and in data set [9] were 0.38 and 0.37, respectively.
For the compound `CCNC(=O)[C@@H]1CCCN1C(=O)[C@H](CCCNC(=N)N)NC(=O)[C@H](CC(C)C)NC(=O)[C@@H](CCCN)NC(=O)[C@H](Cc1ccc(O)cc1)NC(=O)[C@H](CO)NC(=O)[C@H](Cc1c[nH]c2ccccc12)NC(=O)[C@H](Cc1cnc[nH]1)NC(=O)[C@@H]1CCC(=O)N1`, in data set [1], the “fold change (FC)” value was 682. The Rf was 0.69 in [2]; 0.47 in data set [3]; 0.34 in data set [4]; 0.26 in [5]; 0.65 in [6]; 0.29 in [7].
